System: SUM149PT spheroids with HUVEC/MSC, viability
Assay: Anticancer human tumor SUM149PT cell line growth inhibition [GQUAD];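 also: spheroids exposed to drugs for seven days before readout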;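 as to viability, T/C: percent viability relative to DMSO vehicle control taken as 100%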
Conditions: for IC50: curve of first compound; for viability, T/C: stronger effect = lower value
How it was run: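 Tumor cells were grown as complex spheroids with HUVEC endothelial cells and mesenchymal stem cells as stroma. G-quadruplex stabilizers were combined with targeted agents over half-log dilutions from near the clinical Cmax, or from 10 microM.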

[1] = second compound 0.0316 µM, first compound 0.0316 µM
[2] = second compound 0.0316 µM, first compound 0.1 µM
[3] = second compound 0.0316 µM, first compound 0.316 µM
[4] = second compound 0.0316 µM, first compound 1 µM
[5] = second compound 0.0316 µM, first compound 3.16 µM
[6] = second compound 0.0316 µM, first compound 10 µM
[7] = second compound 0.1 µM, first compound 0.0316 µM
[8] = second compound 0.1 µM, first compound 0.1 µM
[9] = second compound 0.1 µM, first compound 0.316 µM
[10] = second compound 0.1 µM, first compound 1 µM
[11] = second compound 0.1 µM, first compound 3.16 µM
[12] = second compound 0.1 µM, first compound 10 µM
[13] = second compound 0.316 µM, first compound 0.0316 µM
[14] = second compound 0.316 µM, first compound 0.1 µM
[15] = second compound 0.316 µM, first compound 0.316 µM
[16] = second compound 0.316 µM, first compound 1 µM
[17] = second compound 0.316 µM, first compound 3.16 µM
[18] = second compound 0.316 µM, first compound 10 µM
[19] = second compound 1 µM, first compound 0.0316 µM
[20] = second compound 1 µM, first compound 0.1 µM
[21] = second compound 1 µM, first compound 0.316 µM
[22] = second compound 1 µM, first compound 1 µM
[23] = second compound 1 µM, first compound 3.16 µM
[24] = second compound 1 µM, first compound 10 µM
[25] = second compound 3.16 µM, first compound 0.0316 µM
[26] = second compound 3.16 µM, first compound 0.1 µM
[27] = second compound 3.16 µM, first compound 0.316 µM
[28] = second compound 3.16 µM, first compound 1 µM
[29] = second compound 3.16 µM, first compound 3.16 µM
[30] = second compound 3.16 µM, first compound 10 µM
[31] = second compound 10 µM, first compound 0.0316 µM
[32] = second compound 10 µM, first compound 0.1 µM
[33] = second compound 10 µM, first compound 0.316 µM
[34] = second compound 10 µM, first compound 1 µM
[35] = second compound 10 µM, first compound 3.16 µM
[36] = second compound 10 µM, first compound 10 µM

SMILES: CC1COCCN1c1cc(C2(O)CC3CCC(C2)O3)c2cnn(-c3ccn[nH]3)c2n1 (stereo unspecified) + Cc1[nH]c2ccc(F)cc2c1-c1nc2c3cccnc3c3ncccc3c2[nH]1
- IC50 (second compound 0.0316 µM): 0.0738 µM
- IC50 (second compound 0.1 µM): 0.0778 µM
- IC50 (second compound 0.316 µM): 0.0841 µM
- IC50 (second compound 1 µM): 0.076 µM
- IC50 (second compound 3.16 µM): 0.0711 µM
- IC50 (second compound 10 µM): 0.0619 µM
- viability, T/C [1]: 74.5%
- viability, T/C [2]: 40.2%
- viability, T/C [3]: 27.5%
- viability, T/C [4]: 23.9%
- viability, T/C [5]: 22%
- viability, T/C [6]: 15.9%
- viability, T/C [7]: 78.9%
- viability, T/C [8]: 40.5%
- viability, T/C [9]: 28.3%
- viability, T/C [10]: 22.6%
- viability, T/C [11]: 23.9%
- viability, T/C [12]: 15.4%
- viability, T/C [13]: 80.9%
- viability, T/C [14]: 45.6%
- viability, T/C [15]: 24.6%
- viability, T/C [16]: 25.5%
- viability, T/C [17]: 25.4%
- viability, T/C [18]: 14.7%
- viability, T/C [19]: 81.8%
- viability, T/C [20]: 40.2%
- viability, T/C [21]: 24.8%
- viability, T/C [22]: 23.5%
- viability, T/C [23]: 23.6%
- viability, T/C [24]: 17.6%
- viability, T/C [25]: 78.4%
- viability, T/C [26]: 38.2%
- viability, T/C [27]: 22.3%
- viability, T/C [28]: 25.8%
- viability, T/C [29]: 23.5%
- viability, T/C [30]: 15.3%
- viability, T/C [31]: 74.9%
- viability, T/C [32]: 32.2%
- viability, T/C [33]: 22.9%
- viability, T/C [34]: 23.1%
- viability, T/C [35]: 24.7%
- viability, T/C [36]: 16.2%

SMILES: CC1COCCN1c1cc(C2(S(C)(=N)=O)CC2)nc(-c2ccnc3[nH]ccc23)n1 (stereo unspecified) + Cc1[nH]c2ccc(F)cc2c1-c1nc2c3cccnc3c3ncccc3c2[nH]1
- IC50 (second compound 0.0316 µM): 2.38 µM
- IC50 (second compound 0.1 µM): 2.65 µM
- IC50 (second compound 0.316 µM): 2.83 µM
- IC50 (second compound 1 µM): 2.63 µM
- IC50 (second compound 3.16 µM): 2.45 µM
- IC50 (second compound 10 µM): 2.17 µM
- viability, T/C [1]: 95.9%
- viability, T/C [2]: 93.6%
- viability, T/C [3]: 99.7%
- viability, T/C [4]: 79.5%
- viability, T/C [5]: 40.5%
- viability, T/C [6]: 17.3%
- viability, T/C [7]: 112%
- viability, T/C [8]: 99.5%
- viability, T/C [9]: 86.7%
- viability, T/C [10]: 89.2%
- viability, T/C [11]: 41.9%
- viability, T/C [12]: 22.6%
- viability, T/C [13]: 103%
- viability, T/C [14]: 105%
- viability, T/C [15]: 89.8%
- viability, T/C [16]: 83.6%
- viability, T/C [17]: 45%
- viability, T/C [18]: 20.6%
- viability, T/C [19]: 91.9%
- viability, T/C [20]: 100%
- viability, T/C [21]: 97.1%
- viability, T/C [22]: 83.9%
- viability, T/C [23]: 43.5%
- viability, T/C [24]: 19.6%
- viability, T/C [25]: 86.5%
- viability, T/C [26]: 84.9%
- viability, T/C [27]: 89.7%
- viability, T/C [28]: 75.4%
- viability, T/C [29]: 42.8%
- viability, T/C [30]: 19%
- viability, T/C [31]: 103%
- viability, T/C [32]: 96.5%
- viability, T/C [33]: 94.3%
- viability, T/C [34]: 79.5%
- viability, T/C [35]: 35.6%
- viability, T/C [36]: 18.3%

SMILES: CC(=O)O[C@H]1C(=O)[C@@]2(C)[C@H]([C@H](OC(=O)c3ccccc3)[C@]3(O)C[C@H](OC(=O)[C@H](O)[C@@H](NC(=O)c4ccccc4)c4ccccc4)C(C)=C1C3(C)C)[C@]1(OC(C)=O)CO[C@@H]1C[C@@H]2O + Cc1[nH]c2ccc(F)cc2c1-c1nc2c3cccnc3c3ncccc3c2[nH]1
- IC50 (second compound 0.0316 µM): < 0.0316 µM
- IC50 (second compound 0.1 µM): < 0.0316 µM
- IC50 (second compound 0.316 µM): < 0.0316 µM
- IC50 (second compound 1 µM): < 0.0316 µM
- IC50 (second compound 3.16 µM): < 0.0316 µM
- IC50 (second compound 10 µM): < 0.0316 µM
- viability, T/C [1]: 31.7%
- viability, T/C [2]: 25.7%
- viability, T/C [3]: 21.3%
- viability, T/C [4]: 19.2%
- viability, T/C [5]: 19%
- viability, T/C [6]: 23.1%
- viability, T/C [7]: 34.9%
- viability, T/C [8]: 24.9%
- viability, T/C [9]: 22.7%
- viability, T/C [10]: 19.7%
- viability, T/C [11]: 19.3%
- viability, T/C [12]: 25.8%
- viability, T/C [13]: 32.2%
- viability, T/C [14]: 25.7%
- viability, T/C [15]: 24.2%
- viability, T/C [16]: 18.9%
- viability, T/C [17]: 20.8%
- viability, T/C [18]: 26.5%
- viability, T/C [19]: 30.2%
- viability, T/C [20]: 27.2%
- viability, T/C [21]: 23.1%
- viability, T/C [22]: 17.3%
- viability, T/C [23]: 21.5%
- viability, T/C [24]: 26.6%
- viability, T/C [25]: 29.8%
- viability, T/C [26]: 28.6%
- viability, T/C [27]: 21.5%
- viability, T/C [28]: 18%
- viability, T/C [29]: 20.5%
- viability, T/C [30]: 22.9%
- viability, T/C [31]: 28.5%
- viability, T/C [32]: 24.9%
- viability, T/C [33]: 20.2%
- viability, T/C [34]: 20.7%
- viability, T/C [35]: 22.3%
- viability, T/C [36]: 23.1%
